Here are results for one compound from US20230391871A1, “MONOAMINE OXIDASE BLOCKADE THERAPY FOR TREATING CANCER THROUGH REGULATING TUMOR ASSOCIATED MACROPHAGES (TAMS)” (THE REGENTS OF THE UNIVERSITY OF CALIFORNIA, priority 2020, published 2023).

Each structure is given as a SMILES string.

The subject of test [1] is A375-A2-ESO tumour cells / ESO-T cells / polarized MDMs. How it is done: (§1) FIG. 6: MAO-A blockade for cancer immunotherapy-human TAM and clinical data correlation studies. a, Studying the MAOA gene expression in human M1- and M2-like macrophages. A transcriptome data set (GSE35449) was analyzed using the prioritization function of a Tumour Immune Dysfunction and Exclusion (TIDE) computational method. Heatmaps are presented, showing the M2-like/M1-like mRNA fold change of MAOA gene as well as a selected group of immunosuppressive, immunostimulatory, and immune checkpoints signature genes. b-d, Studying the MAO-A expression in in vitro differentiated and IL-4/IL-13-polarized human monocyte-derived macrophages (MDMs: n=4). MDMs were generated by culturing healthy donor peripheral blood monocytes over 6 days, followed by stimulation with IL-4 and IL-13 for another 2 days. NC, no cytokine stimulation. (b,c) QPCR analyses of MAOA mRNA expression in MDMs over the 6-day MDM differentiation culture (b) and post the IL-4/IL-13-induced polarization (c). (d) Western blot analyses of MAO-A protein expression in IL-4/IL-13-polarized MDMs. e-g, Studying the in vitro polarization of human MDMs (n=3). MDMs were stimulated with IL-4/IL-13 for 2 days, in the presence or absence of phenelzine (Phe, 20 μM) treatment. NC, no cytokine stimulation: NT, no phenelzine treatment. (e) FACS analyses of CD206 expression on MDMs. (f,g) QPCR analyses ALOX15 (f) and (CD200R1 (g) mRNA expression in MDMs. h-j, Studying the in vivo polarization of human macrophages in a human Tumour-TAM Co-Inoculation xenograft mouse model (n=4). (h) Experimental design. FACS-sorted healthy donor peripheral blood monocytes were mixed with human A375 melanoma cells and s.c. injected into NSG mice to form solid tumours, with or without phenelzine treatment (Phe or NT). (i,j) FACS analyses of CD206 (i) and CD273 (j) expression on TAMs (gated as hCD45^+hCD11b^+hCD14^+ cells of total TIIs) isolated from experimental mice at day 10. k-m, Studying the in vitro efficacy of phenelzine in reprogramming human TAMs and enhancing human T cell antitumour reactivity (n=6). (k) Schematics showing an in vitro 3D human tumour/TAM/T cell organoid culture. A375-A2-ESO, human A375 melanoma cell line engineered to express an NY-ESO-1 tumour antigen as well as its matching HLA-A2 molecule: ESO-T, human peripheral blood CD8 T cells engineered to express an NY-ESO-1-specific TCR: Polarized TAM, human MDMs polarized in vitro with IL-4/IL-13 in the presence or absence of phenelzine treatment (denoted as TAM Phe or TAM NT, respectively). Cells were mixed and cultured as organoids for two days before analysis. (l,m) FACS quantification of live tumour cells (gated as hCD45^− cells) and ESO-T cells (gated as hCD45^+hCD8^+ESO-TCR^+ cells). n, QPCR analyses of MAOA mRNA expression in human TAMs isolated from ovarian cancer patient tumour samples (n=4). Monocytes isolated from random healthy donor peripheral blood were included as controls (n=10). Mo, monocyte. o-r, Clinical data correlation studies. The correlation function of a TIDE computational method was utilized. The association between the intratumoural MAOA gene expression levels and overall survival (OS) of cancer patients was computed through the two-sided Wald test in the Cox-PH regression. For each patient cohort, tumour samples were divided into the MAOA-high (samples with MAOA expression one standard deviation above the average) and MAOA-low (remaining samples) groups, followed by analysing the OS of each group. TIDE analyses of an ovarian cancer patient cohort (GSE26712, n=182: o), a lymphoma patient cohort (GSE10846, n=388: p), a breast cancers patient cohort (GSE9893, n=148: q), and a melanoma patient cohort with anti-PD-1 therapy (PRJEB23709, n=41: r). Representative of 1 (n), 2 (b-d, h-j) and 3 (e-g, k-m) experiments. All data are presented as the mean±SEM. ns, not significant, *P<0.05, **P<0.01, and ***P<0.001, by 1-way ANOVA (l, m), 2-way ANOVA (e-g), or by Student's t test (i, j, n).

The subject of test [2] is human monocyte-derived macrophages (MDMs). Particulars: phenelzine 20 μM, IL-4/IL-13 for 2 days. Here is the method:
as §1

The next test has as its system human TAMs. Particulars: A375 + human monocytes s.c. in NSG mice; phenelzine 30 mg/kg/day i.p.; day 10. Here is the method:
as §1

[3] abbreviates: ESO-T cells co-cultured with phenelzine-treated vs non-phenelzine-treated MDMs.

Take `NNCCc1ccccc1` [phenelzine]: in test [1] (setting [3]), the “CD25 expression on ESO-T cells” value is “increased”, the “CD62L expression on ESO-T cells” value is listed as “decreased” and the ESO-T cell number entry is listed as “increased”. The “immunosuppressive effect of IL-4/IL-13-polarized MDMs on ESO-T cell-mediated killing of A375-A2-ESO tumour cells” value in test [1] (phenelzine treatment during MDM polarization, organoid cultured 2 days) was “largely alleviated”. Further, in test [2], the “ALOX15 mRNA expression in MDMs (QPCR)” value is recorded as “decreased expression”, the “CD200R1 mRNA expression in MDMs (QPCR)” value is given as “decreased expression”, the “CD206 expression on MDMs (FACS)” value is given as “decreased expression” and the “CD273 expression on MDMs (FACS)” value was “decreased expression”. Besides, the “IL-4/IL-13-induced immunosuppressive polarization of MDMs” value in test [2] is “significantly inhibited”. Also, in the test with human TAMs, the “CD206 expression on human TAMs (FACS)” value is on record as “decreased expression”, the “CD273 expression on human TAMs (FACS)” value was “decreased expression” and the “immunosuppressive polarization of human TAMs in vivo” value is listed as “effectively suppressed”.
